How the values were obtained:
TLR2 [1] = target: T1, TLR2 (Mus musculus, UniProt Q9QUN7); assay: TLR2 functional assay, cytokine release from RAW 264.7 mouse macrophage cell line; format: cell-based; details: average of all runs
T1 construct: endogenous in cells; host or cells: RAW 264.7
Experimental: Cells of the immune system respond to TLR agonists in part by secreting cytokines. Functional assays for TLR2 agonists measure cytokine release from purified immune cells or immortalized cell lines derived from immune cells. Cytokine release is measured by standard ELISA approaches or multiplexed analysis using the Meso Scale Discovery (MSD) platform.
Purified primary human peripheral blood mononuclear cells or RAW 264.7 mouse macrophage cell line cells are plated at approximately 40,000 cells per well. Cells are treated with agonist compounds and assays 6-24 hours post-treatment for cytokines released into the cell culture media.
Following assay measurements utilizing either HEK-Blue detection or cytokine release, all data is analyzed with the GraphPad Prism8 statistical package to determine EC50, binding and activity metrics for the TLR2 modulators.
Numerous cell lines derived from various cell types can respond to TLR2 agonists with stereotyped cytokine and chemokine secretion. In particular, cell lines derived from macrophages respond robustly to TLR2 agonists by secreting a wide array of cytokines, including (but not limited to) TNF-alpha, IL-1, IL-10 and IL-12. The human monocytic cell line THP-1, the mouse macrophage line RAW-264.7, and the rat macrophage line NR8383 were used. For each assay, the respective cell lines were plated into 96-well plates overnight and then treated the following day with various TLR2-engaging compounds at varying concentrations. The next day, supernatants were collected and assayed by multiplex immunodetection for cytokines released (MSD detection kits for respective species).
Data provided in Table 5 is generated using protocols described in Example 45 and 46.

TLR2 [2] = target: TLR2 (Homo sapiens, UniProt O60603); assay: TLR2 agonist screening assay, HEK-Blue TLR2 reporter cell line (NF-kB-driven SEAP, absorbance at 600 nm); format: cell-based; set-up: host or cells: HEK-293 (HEK-Blue TLR2 reporter cell line); details: HEK-Blue TLR2 reporter cells, agonist mode; average of all runs (Table 4)
How it was run: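 HEK-293 cells expressing TLR2 with NF-kB-driven SEAP were plated at 40,000 per well. After 16-24 h, they were treated overnight with diluted agonists in detection medium (1% DMSO final). Absorbance at 600 nm was read, and EC50 values were fitted.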

T1 sequence (Q9QUN7 25-784): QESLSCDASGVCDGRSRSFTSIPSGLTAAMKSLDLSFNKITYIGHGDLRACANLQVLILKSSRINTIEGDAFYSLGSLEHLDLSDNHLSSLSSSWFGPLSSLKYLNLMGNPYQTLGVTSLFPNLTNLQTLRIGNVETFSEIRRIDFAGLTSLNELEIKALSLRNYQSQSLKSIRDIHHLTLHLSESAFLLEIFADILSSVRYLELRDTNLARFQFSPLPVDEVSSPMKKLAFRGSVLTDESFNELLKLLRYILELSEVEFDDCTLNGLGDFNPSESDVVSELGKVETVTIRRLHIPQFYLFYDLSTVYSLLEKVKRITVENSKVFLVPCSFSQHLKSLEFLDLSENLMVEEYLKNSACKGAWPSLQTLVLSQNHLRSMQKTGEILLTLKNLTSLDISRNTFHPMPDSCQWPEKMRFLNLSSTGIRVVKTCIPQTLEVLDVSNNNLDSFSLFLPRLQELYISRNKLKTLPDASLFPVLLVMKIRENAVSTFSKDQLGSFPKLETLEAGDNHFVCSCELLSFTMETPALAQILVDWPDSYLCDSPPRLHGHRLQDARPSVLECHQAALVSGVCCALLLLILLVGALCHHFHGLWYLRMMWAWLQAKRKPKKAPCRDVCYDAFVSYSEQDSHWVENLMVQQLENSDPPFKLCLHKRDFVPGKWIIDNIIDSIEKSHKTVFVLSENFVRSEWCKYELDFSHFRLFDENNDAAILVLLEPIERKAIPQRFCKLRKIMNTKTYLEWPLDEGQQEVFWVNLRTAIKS
Sequence of TLR2 (Homo sapiens, UniProt O60603) (O60603 21-784): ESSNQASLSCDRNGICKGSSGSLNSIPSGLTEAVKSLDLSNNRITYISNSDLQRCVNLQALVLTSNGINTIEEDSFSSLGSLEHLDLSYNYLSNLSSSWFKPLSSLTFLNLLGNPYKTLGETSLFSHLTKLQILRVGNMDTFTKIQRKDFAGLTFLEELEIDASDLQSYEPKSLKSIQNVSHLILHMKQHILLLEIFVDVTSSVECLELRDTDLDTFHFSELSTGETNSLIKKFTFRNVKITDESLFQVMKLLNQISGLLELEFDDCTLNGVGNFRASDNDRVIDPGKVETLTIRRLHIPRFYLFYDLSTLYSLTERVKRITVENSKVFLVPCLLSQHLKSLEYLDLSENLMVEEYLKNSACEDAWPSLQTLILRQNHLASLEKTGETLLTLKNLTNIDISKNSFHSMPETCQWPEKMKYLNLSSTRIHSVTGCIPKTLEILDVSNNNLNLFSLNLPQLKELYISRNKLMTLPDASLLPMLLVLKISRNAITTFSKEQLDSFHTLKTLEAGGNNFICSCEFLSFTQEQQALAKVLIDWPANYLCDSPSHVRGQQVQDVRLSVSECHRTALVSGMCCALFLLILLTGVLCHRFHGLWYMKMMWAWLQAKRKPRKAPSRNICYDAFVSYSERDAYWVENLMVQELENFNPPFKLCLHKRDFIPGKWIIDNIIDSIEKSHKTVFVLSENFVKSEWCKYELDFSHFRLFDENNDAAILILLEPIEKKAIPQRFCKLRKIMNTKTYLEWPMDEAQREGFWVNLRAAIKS

SMILES: CCCCCCCNC(=O)N[C@@H](CNC(=O)c1ccc(C(=O)N2C[C@@H](C(=O)N[C@H]3C[C@@H]3c3ccccc3)[C@H](C(=O)N[C@H]3C[C@@H]3c3ccccc3)C2)cc1)C(=O)NCCCCCC [Compound 181, (3S,4S)-1-(4-(((S)-2-(3-heptylureido)-3-(hexylamino)-3-oxopropyl)carbamoyl)benzoyl)-N3,N4-bis ((1S,2R)-2-phenylcyclopropyl) pyrrolidine-3,4-dicarboxamide]
- EC50 (TLR2 [1]): > 1000 nM
- EC50 (TLR2 [2]): 0.1 to 50 nM

SMILES: CCCCCCCNC(=O)[C@H](CNC(=O)c1ccc(C(=O)N2C[C@@H](C(=O)N[C@H]3C[C@@H]3c3ccccc3)[C@H](C(=O)N[C@H]3C[C@@H]3c3ccccc3)C2)cc1)NC(=O)CCCCCCC [Compound 184, (3S,4S)-1-(4-(((S)-3-(heptylamino)-2-octanamido-3-oxopropyl)carbamoyl)benzoyl)-N3,N4-bis((1S,2R)-2-phenylcyclopropyl)pyrrolidine-3,4-dicarboxamide]
- EC50 (TLR2 [1]): 51 to 350 nM
- EC50 (TLR2 [2]): 0.1 to 50 nM

SMILES: CCCCCCNC(=O)[C@H](Cn1cc(-c2ccc(C(=O)N3C[C@@H](C(=O)N[C@H]4C[C@@H]4c4ccccc4)[C@H](C(=O)N[C@H]4C[C@@H]4c4ccccc4)C3)cc2)nn1)NC(=O)CCCCCC [Compound 185, (3S,4S)-1-(4-(1-((S)-2-heptanamido-3-(hexylamino)-3-oxopropyl)-1H-1,2,3-triazol-4-yl)benzoyl)-N3,N4-bis((1S,2R)-2-phenylcyclopropyl)pyrrolidine-3,4-dicarboxamide]
- EC50 (TLR2 [1]): 0.1 to 50 nM
- EC50 (TLR2 [2]): 0.1 to 50 nM

SMILES: CCCCCCCCCCCCNC(=O)N[C@H]1CN(C(=O)c2ccc(C(=O)N3C[C@@H](C(=O)N[C@H]4C[C@@H]4c4ccccc4)[C@H](C(=O)N[C@H]4C[C@@H]4c4ccccc4)C3)cc2)C[C@@H]1OC [Compound 188, (3S,4S)-1-(4-((3S,4S)-3-(3-dodecylureido)-4-methoxypyrrolidine-1-carbonyl)benzoyl)-N3,N4-bis((1S,2R)-2-phenylcyclopropyl)pyrrolidine-3,4-dicarboxamide]
- EC50 (TLR2 [1]): 351 to 1000 nM
- EC50 (TLR2 [2]): 0.1 to 50 nM

SMILES: CCCCCCCCCCCCCNC(=O)N[C@H]1CN(C(c2ccc(C(=O)N3C[C@@H](C(=O)N[C@H]4C[C@@H]4c4ccccc4)[C@H](C(=O)N[C@H]4C[C@@H]4c4ccccc4)C3)cc2)C(F)(F)F)C[C@@H]1OC (stereo partly drawn) [Compound 189, (3S,4S)—N3,N4-bis((1S,2R)-2-phenylcyclopropyl)-1-(4-(2,2,2-trifluoro-1-((3S,4S)-3-methoxy-4-(3-tridecylureido)pyrrolidin-1-yl)ethyl)benzoyl)pyrrolidine-3,4-dicarboxamide]
- EC50 (TLR2 [1]): 351 to 1000 nM
- EC50 (TLR2 [2]): 0.1 to 50 nM

SMILES: CCCCCCCCNC(=O)[C@H](CNC(=O)c1ccc(C(=O)N2C[C@@H](C(=O)N[C@H]3C[C@@H]3c3ccccc3)[C@H](C(=O)N[C@H]3C[C@@H]3c3ccccc3)C2)cc1)NC(=O)CCCCCCCC [Compound 197, (3S,4S)-1-(4-(((S)-2-nonanamido-3-(octylamino)-3-oxopropyl)carbamoyl)benzoyl)-N3,N4-bis((1S,2R)-2-phenylcyclopropyl)pyrrolidine-3,4-dicarboxamide]
- EC50 (TLR2 [1]): 351 to 1000 nM
- EC50 (TLR2 [2]): 0.1 to 50 nM

SMILES: CCCCCCCCCCCCCNC(=O)N[C@@H](CNC(=O)c1ccc(C(=O)N2C[C@@H](C(=O)N[C@H]3C[C@@H]3c3ccccc3)[C@H](C(=O)N[C@H]3C[C@@H]3c3ccccc3)C2)cc1)COC [Compound 198, (3S,4S)-1-(4-(((S)-3-methoxy-2-(3-tridecylureido)propyl)carbamoyl)benzoyl)-N3,N4-bis((1S,2R)-2-phenylcyclopropyl)pyrrolidine-3,4-dicarboxamide]
- EC50 (TLR2 [1]): > 1000 nM
- EC50 (TLR2 [2]): > 1000 nM

SMILES: CCCCCCCCCCCNC(=O)N[C@H]1CN(C(=O)c2ccc(C(=O)N3C[C@@H](C(=O)N[C@H]4C[C@@H]4c4ccccc4)[C@H](C(=O)N[C@H]4C[C@@H]4c4ccccc4)C3)cc2)C[C@@H]1OC [Compound 199, (3S,4S)-1-(4-((3S,4S)-3-methoxy-4-(3-undecylureido)pyrrolidine-1-carbonyl)benzoyl)-N3,N4-bis((1S,2R)-2-phenylcyclopropyl)pyrrolidine-3,4-dicarboxamide]
- EC50 (TLR2 [1]): > 1000 nM
- EC50 (TLR2 [2]): 0.1 to 50 nM

SMILES: CCCCCCCCCCCCNC(=O)N[C@@H]1CCCN(C(=O)c2ccc(C(=O)N3C[C@@H](C(=O)N[C@H]4C[C@@H]4c4ccccc4)[C@H](C(=O)N[C@H]4C[C@@H]4c4ccccc4)C3)cc2)C1 [Compound 204, (3S,4S)-1-(4-((R)-3-(3-dodecylureido)piperidine-1-carbonyl)benzoyl)-N3,N4-bis((1S,2R)-2-phenylcyclopropyl)pyrrolidine-3,4-dicarboxamide]
- EC50 (TLR2 [1]): > 1000 nM
- EC50 (TLR2 [2]): 0.1 to 50 nM

SMILES: CCCCCCCCCCCCCNC(=O)N[C@@H]1CCCN(C(=O)c2ccc(C(=O)N3C[C@@H](C(=O)N[C@H]4C[C@@H]4c4ccccc4)[C@H](C(=O)N[C@H]4C[C@@H]4c4ccccc4)C3)cc2)C1 [Compound 205, (3S,4S)—N3,N4-bis((1S,2R)-2-phenylcyclopropyl)-1-(4-((R)-3-(3-tridecylureido)piperidine-1-carbonyl)benzoyl)pyrrolidine-3,4-dicarboxamide]
- EC50 (TLR2 [1]): > 1000 nM
- EC50 (TLR2 [2]): 0.1 to 50 nM

SMILES: CCCCCCCCCCCCCCNC(=O)N[C@@H]1CCCN(C(=O)c2ccc(C(=O)N3C[C@@H](C(=O)N[C@H]4C[C@@H]4c4ccccc4)[C@H](C(=O)N[C@H]4C[C@@H]4c4ccccc4)C3)cc2)C1 [Compound 206, (3S,4S)—N3,N4-bis((1S,2R)-2-phenylcyclopropyl)-1-(4-((R)-3-(3-tetradecylureido)piperidine-1-carbonyl)benzoyl)pyrrolidine-3,4-dicarboxamide]
- EC50 (TLR2 [1]): > 1000 nM
- EC50 (TLR2 [2]): 0.1 to 50 nM

SMILES: CCCCCCCCCCCCCCC(=O)N[C@@H]1CN(C(=O)c2ccc(C(=O)N3C[C@@H](C(=O)N[C@H]4C[C@@H]4c4ccccc4)[C@H](C(=O)N[C@H]4C[C@@H]4c4ccccc4)C3)cc2)C[C@@H]1OC [Compound 209, (3S,4S)-1-(4-((3S,4R)-3-methoxy-4-pentadecanamidopyrrolidine-1-carbonyl)benzoyl)-N3,N4-bis((1S,2R)-2-phenylcyclopropyl)pyrrolidine-3,4-dicarboxamide]
- EC50 (TLR2 [1]): > 1000 nM
- EC50 (TLR2 [2]): 0.1 to 50 nM

SMILES: CCCCCCCCCCCCCNC(=O)N[C@H]1CN(C(=O)c2ccc(C(=O)N3C[C@@H](C(=O)N[C@H]4C[C@@H]4c4ccccc4)[C@H](C(=O)N[C@H]4C[C@@H]4c4ccccc4)C3)cc2)C[C@H]1OC [Compound 210, (3S,4S)-1-(4-((3R,4S)-3-methoxy-4-(3-tridecylureido)pyrrolidine-1-carbonyl)benzoyl)-N3,N4-bis((1S,2R)-2-phenylcyclopropyl)pyrrolidine-3,4-dicarboxamide]
- EC50 (TLR2 [1]): > 1000 nM
- EC50 (TLR2 [2]): 0.1 to 50 nM

SMILES: CCCCCCCCNC(=O)N[C@@H](CNC(=O)c1ccc(C(=O)N2C[C@@H](C(=O)N[C@H]3C[C@@H]3c3ccccc3)[C@H](C(=O)N[C@H]3C[C@@H]3c3ccccc3)C2)cc1)C(=O)NCCCCCC [Compound 211, (3S,4S)-1-(4-(((S)-3-(hexylamino)-2-(3-octylureido)-3-oxopropyl)carbamoyl)benzoyl)-N3,N4-bis((1S,2R)-2-phenylcyclopropyl)pyrrolidine-3,4-dicarboxamide]
- EC50 (TLR2 [1]): > 1000 nM
- EC50 (TLR2 [2]): 0.1 to 50 nM

— patent publication US11951094B2, “TLR2 modulator compounds, pharmaceutical compositions and uses thereof” (Axial Therapeutics, Inc., priority 2020, dated 2024)
